These results are taken from patent publication US10023558B2, “Compounds” (CHIESI FARMACEUTICI S.P.A., priority 2016, dated 2018).

Molecules are shown by their SMILES.

The assay has as its target T1, human neutrophil elastase (HNE) (Homo sapiens, UniProt P08246).
T1 construct: purchased Sigma E8140
T1 sequence (P08246 30-247 limits assumed): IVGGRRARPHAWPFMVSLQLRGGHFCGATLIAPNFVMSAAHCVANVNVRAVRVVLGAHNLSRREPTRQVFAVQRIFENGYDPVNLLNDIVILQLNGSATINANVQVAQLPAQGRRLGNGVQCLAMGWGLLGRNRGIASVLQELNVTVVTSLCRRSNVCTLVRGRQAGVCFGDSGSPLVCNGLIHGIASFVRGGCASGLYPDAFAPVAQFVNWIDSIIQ
The experiment in a line: HNE Enzyme Assay (fluorogenic peptide substrate MeOSuc-Ala-Ala-Pro-Val-AMC). It is filed as biochemical. The conditions noted are these: human leukocyte elastase 0.00072 U/mL, substrate 100 μM, 25° C., 30 minutes, at least two separate experiments; read-out: HNE inhibition (IC50 values). As for the experimental part:
Compounds of this invention were tested for potency in a human neutrophil elastase (HNE) enzyme activity assay.
Assays were performed in 96-well plates in a total assay volume of 100 μL. The final concentration of elastase enzyme (human leukocyte elastase, Sigma E8140) was 0.00072 U/mL. The peptide substrate (MeOSuc-Ala-Ala-Pro-Val-AMC, Calbiochem #324740) was used at a final concentration of 100 μM. The final concentration of DMSO was 1% in the assay buffer (0.05M Tris.HCl, 0.1M NaCl, 0.1M CaCl2, 0.0005% Brij-35, pH 7.5). The enzymatic reaction was started by addition of the enzyme and incubated at 25° C. for 30 minutes. After incubation, the reaction was stopped by addition of soybean trypsin inhibitor (Sigma T9003) at a final concentration of 50 μg/well. Fluorescence was measured using a Molecular Devices fluorescence plate reader using 380 nm excitation and 460 nm emission wavelengths.
A concentration response to each compound was performed and the effect of compound in each experiment was expressed as a percentage inhibition of the control enzyme fluorescence. Dose response curves were plotted and compound potency (IC50) was determined. Compounds were tested in at least two separate experiments.

`Cc1c(-c2ccnn2-c2ccc(C#N)cc2)n(C(=O)N[C@@H](C)C(=O)N2CCN(C)CC2)c(=O)n1-c1cccc(C(F)(F)F)c1` [Example 11, 5-[2-(4-Cyano-phenyl)-2H-pyrazol-3-yl]-4-methyl-2-oxo-3-(3-trifluoromethyl-phenyl)-2,3-dihydro-imidazole-1-carboxylic acid [(S)-1-methyl-2-(4-methyl-piperazin-1-yl)-2-oxo-ethyl]-amide]: the IC50 is < 1 nM.

In the case of `Cc1c(-c2ccnn2-c2ccc(C#N)cc2)n(C(=O)N[C@H]2CC[C@H](NC(=O)OC(C)(C)C)CC2)c(=O)n1-c1cccc(C(F)(F)F)c1` [Example 8, (Trans-4-{[5-[2-(4-cyano-phenyl)-2H-pyrazol-3-yl]-4-methyl-2-oxo-3-(3-trifluoromethyl-phenyl)-2,3-dihydro-imidazole-1-carbonyl]-amino}-cyclohexyl)-carbamic acid tert-butyl ester], the IC50 was < 1 nM. For `Cc1c(-c2ccnn2-c2ccc(C#N)cc2)n(C(=O)N[C@H](C)c2ccncc2)c(=O)n1-c1cccc(C(F)(F)F)c1` [Example 6, 5-[2-(4-Cyano-phenyl)-2H-pyrazol-3-yl]-4-methyl-2-oxo-3-(3-trifluoromethyl-phenyl)-2,3-dihydro-imidazole-1-carboxylic acid ((R)-1-pyridin-4-yl-ethyl)-amide] the value was < 1 nM. To `Cc1c(-c2ccnn2-c2ccc(C#N)cc2)n(C(=O)N[C@@H](C)C(=O)N(C)CC[N+](C)(C)C)c(=O)n1-c1cccc(C(F)(F)F)c1` [Example 71, {2-[((S)-2-{[5-[2-(4-Cyano-phenyl)-2H-pyrazol-3-yl]-4-methyl-2-oxo-3-(3-trifluoromethyl-phenyl)-2,3-dihydro-imidazole-1-carbonyl]-amino}-propionyl)-methyl-amino]-ethyl}-trimethyl-ammonium benzene sulfonate] belongs < 1 nM.

For `CC[C@H](NC(=O)n1c(-c2ccnn2-c2ccc(C#N)cc2)c(C)n(-c2cccc(C(F)(F)F)c2)c1=O)c1ncc(C[N+](C)(C)C)o1` [Example 74, [2-((S)-1-{[5-[2-(4-Cyano-phenyl)-2H-pyrazol-3-yl]-4-methyl-2-oxo-3-(3-trifluoromethyl-phenyl)-2,3-dihydro-imidazole-1-carbonyl]-amino}-propyl)-oxazol-5-ylmethyl]-trimethyl-ammonium benzene sulfonate], the IC50 is < 1 nM. With `Cc1c(-c2ccnn2-c2ccc(C#N)cc2)n(C(=O)N[C@H]2CCC[C@@H]2OCc2ccccc2)c(=O)n1-c1cccc(C(F)(F)F)c1` [Example 2, 5-[2-(4-Cyano-phenyl)-2H-pyrazol-3-yl]-4-methyl-2-oxo-3-(3-trifluoromethyl-phenyl)-2,3-dihydro-imidazole-1-carboxylic acid ((1S,2S)-2-benzyloxy-cyclopentyl)-amide], the half-maximal inhibitory concentration (IC50) lay in the range of 1 to 10 nM. To `Cc1c(-c2ccnn2-c2ccc(C#N)cc2)n(C(=O)N[C@@H]2C[C@H]3CC[C@@H](C2)[N+]3(C)C)c(=O)n1-c1cccc(C(F)(F)F)c1` [Example 39, (1R,3S,5S)-3-{[5-[2-(4-Cyano-phenyl)-2H-pyrazol-3-yl]-4-methyl-2-oxo-3-(3-trifluoromethyl-phenyl)-2,3-dihydro-imidazole-1-carbonyl]-amino}-8,8-dimethyl-8-azonia-bicyclo[3.2.1]octane benzene sulfonate] belongs < 1 nM. For `Cc1c(-c2ccnn2-c2ccc(C#N)cc2)n(C(=O)N[C@H]2CC[C@@H](C[N+](C)(C)C)CC2)c(=O)n1-c1cccc(C(F)(F)F)c1` [Example 53, (Cis-4-{[5-[2-(4-cyano-phenyl)-2H-pyrazol-3-yl]-4-methyl-2-oxo-3-(3-trifiuoromethyl-phenyl)-2,3-dihydro-imidazole-1-carbonyl]-amino}-cyclohexylmethyl)-trimethyl-ammonium benzene sulfonate] the value was 1 to 10 nM; for `Cc1c(-c2ccnn2-c2ccc(C#N)cc2)n(C(=O)N[C@H]2C[C@@H](C[N+](C)(C)C)C2)c(=O)n1-c1cccc(C(F)(F)F)c1` [Example 67, (Cis-3-{[5-[2-(4-cyano-phenyl)-2H-pyrazol-3-yl]-4-methyl-2-oxo-3-(3-trifluoromethyl-phenyl)-2,3-dihydro-imidazole-1-carbonyl]-amino}-cyclobutylmethyl)-trimethyl-ammonium benzene sulfonate], < 1 nM; for `Cc1c(-c2ccnn2-c2ccc(C#N)cc2)n(C(=O)N[C@H]2CC[C@@H]([N+](C)(C)C)CC2)c(=O)n1-c1cccc(C(F)(F)F)c1` [Example 45, (Cis-4-{[5-[2-(4-cyano-phenyl)-2H-pyrazol-3-yl]-4-methyl-2-oxo-3-(3-trifluoromethyl-phenyl)-2,3-dihydro-imidazole-1-carbonyl]-amino}-cyclohexyl)-trimethyl-ammonium benzene sulfonate], 1 to 10 nM. For `Cc1c(-c2ccnn2-c2ccc(C#N)cc2)n(C(=O)N[C@H]2C[C@H](C(=O)NCC[N+](C)(C)C)C2)c(=O)n1-c1cccc(C(F)(F)F)c1` [Example 83, {2-[(Trans-3-{[5-[2-(4-cyano-phenyl)-2H-pyrazol-3-yl]-4-methyl-2-oxo-3-(3-trifluoromethyl-phenyl)-2,3-dihydro-imidazole-1-carbonyl]-amino}-cyclobutanecarbonyl)-amino]-ethyl}-trimethyl-ammonium benzene sulfonate] the value was < 1 nM; for `Cc1c(-c2ccnn2-c2ccc(C#N)cc2)n(C(=O)N[C@@H](C)c2cc[n+](C)cc2)c(=O)n1-c1cccc(C(F)(F)F)c1` [Example 38, 4-((S)-1-{[5-[2-(4-Cyano-phenyl)-2H-pyrazol-3-yl]-4-methyl-2-oxo-3-(3-trifluoromethyl-phenyl)-2,3-dihydro-imidazole-1-carbonyl]-amino}-ethyl)-1-methyl-pyridinium benzene sulfonate], < 1 nM. For the compound `Cc1c(-c2ccnn2-c2ccc(C#N)cc2)n(C(=O)N[C@@H](C)C(=O)N(C)CC2CC[N+](C)(C)CC2)c(=O)n1-c1cccc(C(F)(F)F)c1` [Example 62, 4-{[((S)-2-{[5-[2-(4-Cyano-phenyl)-2H-pyrazol-3-yl]-4-methyl-2-oxo-3-(3-trifluoromethyl-phenyl)-2,3-dihydro-imidazole-1-carbonyl]-amino}-propionyl)-methyl-amino]-methyl}-1,1-dimethyl-piperidinium benzene sulfonate], the IC50 was < 1 nM. To `Cc1c(-c2ccnn2-c2ccc(C#N)cc2)n(C(=O)N[C@H]2C[C@@H]3C[N+](C)(C)C[C@@H]3C2)c(=O)n1-c1cccc(C(F)(F)F)c1` [Example 56, (3aR,5S,6aS)-5-{[5-[2-(4-Cyano-phenyl)-2H-pyrazol-3-yl]-4-methyl-2-oxo-3-(3-trifluoromethyl-phenyl)-2,3-dihydro-imidazole-1-carbonyl]-amino}-2,2-dimethyl-octahydro-cyclopenta[c]pyrrolium benzene sulfonate] belongs < 1 nM; to `Cc1c(-c2ccnn2-c2ccc(C#N)cc2)n(C(=O)N[C@@H](C)C(=O)N2CC[N+](C)(C)CC2)c(=O)n1-c1cccc(C(F)(F)F)c1` [Example 50, 4-((S)-2-{[5-[2-(4-Cyano-phenyl)-2H-pyrazol-3-yl]-4-methyl-2-oxo-3-(3-trifluoromethyl-phenyl)-2,3-dihydro-imidazole-1-carbonyl]-amino}-propionyl)-1,1-dimethyl-piperazin-1-ium benzene sulfonate], < 1 nM; to `Cc1c(-c2ccnn2-c2ccc(C#N)cc2)n(C(=O)N[C@H](C)c2cc[n+](C)cc2)c(=O)n1-c1cccc(C(F)(F)F)c1` [Example 52, 4-((R)-1-{[5-[2-(4-Cyano-phenyl)-2H-pyrazol-3-yl]-4-methyl-2-oxo-3-(3-trifluoromethyl-phenyl)-2,3-dihydro-imidazole-1-carbonyl]-amino}-ethyl)-1-methyl-pyridinium benzene sulfonate], 1 to 10 nM. For `Cc1c(-c2ccnn2-c2ccc(C#N)cc2)n(C(=O)N[C@@H](C)C(=O)N(C)CCN(C)C)c(=O)n1-c1cccc(C(F)(F)F)c1` [Example 20, 5-[2-(4-Cyano-phenyl)-2H-pyrazol-3-yl]-4-methyl-2-oxo-3-(3-trifluoromethyl-phenyl)-2,3-dihydro-imidazole-1-carboxylic acid {(S)-1-[(2-dimethylamino-ethyl)-methyl-carbamoyl]-ethyl}-amide] the value was < 1 nM; for `Cc1c(-c2ccnn2-c2ccc(C#N)cc2)n(C(=O)N[C@H]2CC[C@H](C(=O)OCC[N+](C)(C)C)CC2)c(=O)n1-c1cccc(C(F)(F)F)c1` [Example 82, [2-(Trans-4-{[5-[2-(4-cyano-phenyl)-2H-pyrazol-3-yl]-4-methyl-2-oxo-3-(3-trifluoromethyl-phenyl)-2,3-dihydro-imidazole-1-carbonyl]-amino}-cyclohexanecarbonyloxy)-ethyl]-trimethyl-ammonium benzene sulfonate], < 1 nM.

The IC50 is the concentration needed to halve the response being measured.
